Source: PubChem BioAssay AID504627 (NMMLSC, 2011)
The source made the active and inactive calls.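 The calls were made as follows: active = polarization drop versus untreated control wells larger than 25 mP; inactive = the rest.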

Tests used:
Assay in all cases: Bcl-2 family protein peptide binding inhibitors, dose response, biochemical, fluorescence polarization, powder compounds set 1, panel (AID 504627)
[1] = target: Bcl-2-like protein 1 (Homo sapiens) (UniProt Q07817); conditions: GST-Bcl-2 family protein, FITC-peptide fluorescence polarization, BclXL; for polarization signal (mP), lower = inhibition: at 50 µM (top of the series)
[2] = target: Bcl-2-related protein A1 (Homo sapiens) (UniProt Q16548); conditions: GST-Bcl-2 family protein, FITC-peptide fluorescence polarization, Bfl1; for polarization signal (mP), lower = inhibition: at 50 µM (top of the series)
[3] = target: Bcl-2-like protein 10 (Homo sapiens) (UniProt Q9HD36); conditions: GST-Bcl-2 family protein, FITC-peptide fluorescence polarization, BclB; for polarization signal (mP), lower = inhibition: at 50 µM (top of the series)
[4] = target: Apoptosis regulator Bcl-2 (Homo sapiens) (UniProt P10415); conditions: GST-Bcl-2 family protein, FITC-peptide fluorescence polarization, Bcl2; for polarization signal (mP), lower = inhibition: at 50 µM (top of the series)
Chain of Apoptosis regulator Bcl-2 (Homo sapiens) (P10415 whole entry, looked up): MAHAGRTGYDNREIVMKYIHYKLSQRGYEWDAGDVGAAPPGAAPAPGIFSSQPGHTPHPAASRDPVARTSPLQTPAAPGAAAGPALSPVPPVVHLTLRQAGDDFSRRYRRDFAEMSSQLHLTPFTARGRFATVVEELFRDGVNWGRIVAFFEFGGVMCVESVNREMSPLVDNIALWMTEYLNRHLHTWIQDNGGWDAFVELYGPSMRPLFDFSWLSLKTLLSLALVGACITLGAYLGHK

Chain of Bcl-2-like protein 10 (Homo sapiens) (Q9HD36 whole entry, looked up): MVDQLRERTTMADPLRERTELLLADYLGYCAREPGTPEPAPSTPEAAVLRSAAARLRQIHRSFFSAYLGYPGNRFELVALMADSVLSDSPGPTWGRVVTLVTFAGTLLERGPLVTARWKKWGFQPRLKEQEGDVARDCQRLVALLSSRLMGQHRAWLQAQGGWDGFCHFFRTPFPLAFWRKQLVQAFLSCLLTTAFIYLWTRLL
Chain of Bcl-2-like protein 1 (Homo sapiens) (Q07817 whole entry, looked up): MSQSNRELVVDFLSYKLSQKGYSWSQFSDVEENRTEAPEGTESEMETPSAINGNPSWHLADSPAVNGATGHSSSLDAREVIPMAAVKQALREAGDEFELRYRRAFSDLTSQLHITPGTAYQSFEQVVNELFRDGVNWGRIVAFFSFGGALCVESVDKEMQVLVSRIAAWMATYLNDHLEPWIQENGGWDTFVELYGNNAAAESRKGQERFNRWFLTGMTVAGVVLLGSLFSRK
Chain of Bcl-2-related protein A1 (Homo sapiens) (Q16548 whole entry, looked up): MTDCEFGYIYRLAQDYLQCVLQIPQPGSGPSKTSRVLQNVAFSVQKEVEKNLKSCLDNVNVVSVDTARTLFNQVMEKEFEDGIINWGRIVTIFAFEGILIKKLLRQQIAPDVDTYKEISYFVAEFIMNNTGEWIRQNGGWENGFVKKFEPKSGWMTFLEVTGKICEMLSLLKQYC

Row | Compound | polarization signal (mP), lower = inhibition [1] | polarization signal (mP), lower = inhibition [2] | polarization signal (mP), lower = inhibition [3] | polarization signal (mP), lower = inhibition [4] | IC50 [1] | IC50 [2] | IC50 [3] | IC50 [4]
1 | Cc1cc(-c2cc(-c3ccc(Cl)cc3)nc(N)c2C#N)co1 | inactive | inactive | inactive | inactive | – | – | – | –
2 | O=C1C(Cl)=C(N2CCN(c3ccccc3[N+](=O)[O-])CC2)C(=O)c2ccccc21 | – | – | – | – | 4.4 µM | 2.73 µM | 3.99 µM | 5.64 µM
3 | Cc1ccc(-c2cc(-c3ccc(F)cc3)c(C#N)c(N)n2)o1 | inactive | inactive | inactive | inactive | – | – | – | –
4 | Cc1ccc(C=NNC(=O)CSc2nnc(-c3ccc(Cl)cc3)n2-c2ccccc2)o1 | inactive | inactive | – | inactive | – | – | 8.58 µM | –
5 | O=c1c2c(n3nnnc3n1Cc1ccccc1)-c1ccccc1CC21CCCC1 | inactive | inactive | – | inactive | – | – | 1.13 µM | –
6 | Oc1ccc(NCc2ccccc2OCc2ccccc2)cc1 | inactive | inactive | inactive | inactive | – | – | – | –
7 | Cc1ccc(-c2cc(-c3ccc(C)o3)nc(N)c2C#N)cc1 | inactive | inactive | inactive | inactive | – | – | – | –
8 | O=C1NC(=O)C2(Cc3c(nc4ccccn4c3=O)N3CCCCCC32)C(=O)N1Cc1ccccc1 (stereo not given) | inactive | inactive | – | inactive | – | – | 1.16 µM | –
9 | CNC(CC(=O)c1ccc([N+](=O)[O-])cc1)C(Cl)(Cl)Cl (stereo not given) | inactive | inactive | inactive | inactive | – | – | – | –
10 | COc1ccccc1-n1c(-c2ccccc2)c[nH]c1=S | inactive | inactive | inactive | inactive | – | – | – | –
